The source of these data is the Kinase Knowledgebase extract (Sharma et al. 2016).

The experiment concerns the target EGFR (UniProt P00533).

Chain of EGFR (P00533 whole entry, looked up): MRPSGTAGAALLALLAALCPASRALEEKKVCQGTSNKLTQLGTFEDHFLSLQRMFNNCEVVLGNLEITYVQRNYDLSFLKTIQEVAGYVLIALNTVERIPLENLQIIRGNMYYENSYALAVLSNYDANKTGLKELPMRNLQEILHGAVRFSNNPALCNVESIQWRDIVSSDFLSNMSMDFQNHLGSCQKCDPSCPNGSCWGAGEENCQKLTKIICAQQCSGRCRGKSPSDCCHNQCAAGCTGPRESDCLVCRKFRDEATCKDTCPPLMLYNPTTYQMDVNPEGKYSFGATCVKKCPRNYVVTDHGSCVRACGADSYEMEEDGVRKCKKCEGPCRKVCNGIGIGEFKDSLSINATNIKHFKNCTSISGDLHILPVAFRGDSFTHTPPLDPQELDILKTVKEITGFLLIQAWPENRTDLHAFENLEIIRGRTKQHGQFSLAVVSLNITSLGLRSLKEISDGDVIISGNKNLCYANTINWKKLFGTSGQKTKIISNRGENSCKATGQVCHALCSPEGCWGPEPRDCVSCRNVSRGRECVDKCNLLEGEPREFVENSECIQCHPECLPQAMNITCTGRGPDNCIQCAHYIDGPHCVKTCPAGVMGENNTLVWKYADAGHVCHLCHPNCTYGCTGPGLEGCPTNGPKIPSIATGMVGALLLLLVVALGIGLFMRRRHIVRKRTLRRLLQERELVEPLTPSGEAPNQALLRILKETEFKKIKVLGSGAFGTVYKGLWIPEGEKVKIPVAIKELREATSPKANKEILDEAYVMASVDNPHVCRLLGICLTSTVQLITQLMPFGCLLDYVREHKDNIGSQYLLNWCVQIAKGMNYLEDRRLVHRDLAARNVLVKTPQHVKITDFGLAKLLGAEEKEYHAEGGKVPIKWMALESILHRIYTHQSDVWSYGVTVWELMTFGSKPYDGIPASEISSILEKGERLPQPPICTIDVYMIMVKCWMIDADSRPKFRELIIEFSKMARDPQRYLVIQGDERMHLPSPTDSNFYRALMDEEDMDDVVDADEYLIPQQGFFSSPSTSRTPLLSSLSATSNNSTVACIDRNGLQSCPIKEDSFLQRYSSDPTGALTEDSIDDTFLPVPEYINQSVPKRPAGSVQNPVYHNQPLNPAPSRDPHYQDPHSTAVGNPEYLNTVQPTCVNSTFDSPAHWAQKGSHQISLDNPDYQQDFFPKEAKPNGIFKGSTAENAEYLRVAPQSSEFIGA

For the compound `CCOC(=O)c1ccc(-c2cc3c(Nc4cccc(Cl)c4)ncnc3[nH]2)cc1`, the IC50 is < 5 nM. `Cc1[nH]c2ncnc(Nc3cccc(O)c3)c2c1C` gave an IC50 of 1250 nM. `Oc1cccc(-c2cc3c(Nc4cccc(Cl)c4)ncnc3[nH]2)c1`: the IC50 was < 5 nM. `Brc1cccc(Nc2ccnc3ccccc23)c1` registered an IC50 of 5500 nM.

Compound `CN(C)c1ncc2cc(-c3c(Cl)cccc3Cl)c(=O)n(C)c2n1` registered a concentration for half-maximal inhibition (IC50) of 50000 nM. The compound `Brc1cccc(Nc2ncnc3ccccc23)c1` came in with an IC50 of 27 nM. Regarding `Brc1cccc(Nc2nccc3ccccc23)c1`, the IC50 was > 100000 nM. The result for `Nc1cccc(-c2cc3c(Nc4cccc(Cl)c4)ncnc3[nH]2)c1` reads < 5 nM; that for `O=C(O)c1ccc(-c2cc3c(Nc4cccc(Cl)c4)ncnc3[nH]2)cc1`, < 5 nM; that for `Clc1cccc(Nc2ncnc3[nH]nc(Nc4cccc(Cl)c4)c23)c1`, 84 nM. `CCN(CC)CCOc1ccc(Nc2ncc3cc(-c4c(Cl)cccc4Cl)c(NC(=O)NC(C)(C)C)nc3n2)cc1` returned an IC50 of 24 nM. Regarding `Cc1[nH]c2ncnc(Nc3cccc(Br)c3)c2c1C`, the half-maximal inhibitory concentration (IC50) was 27 nM. In turn, `Cn1c(=O)c(-c2c(Cl)cccc2Cl)cc2cnc(N)nc21` registered a 50% inhibitory concentration (IC50) of 5600 nM. With `Nc1ccc(-c2cc3c(Nc4cccc(Cl)c4)ncnc3[nH]2)cc1`, the 50% inhibitory concentration (IC50) is < 5 nM. As to `Oc1ccc(-c2cc3c(Nc4cccc(Cl)c4)ncnc3[nH]2)cc1`, the IC50 is < 5 nM. Turning to `COc1cc2nc(N)nc(Nc3cccc(Br)c3)c2cc1OC`, the IC50 is 463 nM. `COc1cc2nc(C)nc(Nc3cccc(Br)c3)c2cc1OC`: the IC50 is > 10000 nM. For the compound `Cc1c(-c2ccccc2)[nH]c2ncnc(Nc3cccc(Cl)c3)c12`, the IC50 turned out to be 10 nM.

`Cc1[nH]c2ncnc(Nc3cccc(C(=O)O)c3)c2c1C` yielded an IC50 of 16300 nM.
